Assay results as given in patent US5698411A, “Method for determining activity of enzymes in metabolically active whole cells” (priority 1995, dated 1997).
Structures can show the parent of a compound that is named as a salt. Numbered stars: 1 amine (or outer) side, 2 acyl side, 3 side chain; on linkers, the order of the positions; unused ones are H or OH. Bridge positions count the residues as written; N and C are the ends. Peptide text beside a SMILES is read from it. I, II: the chains in the order shown. Rhodamine110 = O=C1OC2(c3ccc(N[*:1])cc3Oc3cc(N[*:2])ccc32)c2ccccc21

Legend:
Type in all cases: cell-based, human
[1] = system: lymphocytes; experiment: aberrant enzyme activities in febrile children, lymphocytes (Table 7)
[2] = system: granulocytes; experiment: aberrant enzyme activities in febrile children, granulocytes (Table 7)
[3] = system: monocytes; experiment: aberrant enzyme activities in febrile children, monocytes (Table 7)
[4] = P88 Enteritis, listed as Z-Gly/Pro

Structure (SMILES)	aberrant enzyme activity, LYMPHS ([1]; P92 Adenitis)	aberrant enzyme activity, LYMPHS ([1]; P97 Pyelonephritis)	aberrant enzyme activity, LYMPHS ([1]; P103 Viral Syndrome)	aberrant enzyme activity, GRANS ([2]; P92 Adenitis)	aberrant enzyme activity, GRANS ([2]; P97 Pyelonephritis)	aberrant enzyme activity, GRANS ([2]; P103 Viral Syndrome)	aberrant enzyme activity, MONOS ([3]; P92 Adenitis)	aberrant enzyme activity, MONOS ([3]; P97 Pyelonephritis)	aberrant enzyme activity, MONOS ([3]; P103 Viral Syndrome)	aberrant enzyme activity, GRANS ([2]; P96 Viral Syndrome)	aberrant enzyme activity, MONOS ([3]; P96 Viral Syndrome)	aberrant enzyme activity, MONOS ([3]; P99 Viral Syndrome)	aberrant enzyme activity, MONOS ([3]; P102 UTI)	aberrant enzyme activity, LYMPHS ([1]; P89 Viral Stomatitis)	aberrant enzyme activity, MONOS ([3]; P89 Viral Stomatitis)	other results
CC(C)C[C@H](NC(=O)CNC(=O)[C@@H](N)CC(C)C)C(=O)NCC(=O)Nc1ccc2c(c1)Oc1cc(NC(=O)CNC(=O)[C@H](CC(C)C)NC(=O)CNC(=O)[C@@H](N)CC(C)C)ccc1C21OC(=O)c2ccccc21 [LGLG, (H-L-Leu--Gly--Leu--Gly)2 Rho 110 .2TFA] (I: H-LGLG / II: H-LGLG; linker I:C-II:C via Rhodamine110)	.smallcircle.	.smallcircle.	.smallcircle.	.smallcircle.	.smallcircle.	.smallcircle.	.smallcircle.	.smallcircle.	.smallcircle.							
N=C(N)NCCC[C@H](N)C(=O)Nc1ccc2c(c1)Oc1cc(NC(=O)[C@@H](N)CCCNC(=N)N)ccc1C21OC(=O)c2ccccc21 (stereo partly drawn) [ARG, (H-L-Arg)2 Rho 110 .4TFA]	.smallcircle.		.smallcircle.					.smallcircle.		.smallcircle.	.smallcircle.	.smallcircle.	.smallcircle.			aberrant enzyme activity, LYMPHS ([1]; P95 Viral Syndrome): .smallcircle.; aberrant enzyme activity, LYMPHS ([1]; P97 Pyelonephritis, listed as Arg-TFA): .smallcircle.; aberrant enzyme activity, LYMPHS ([1]; P99 Viral Syndrome): .smallcircle.; aberrant enzyme activity, LYMPHS ([1]; P102 UTI): .smallcircle.; aberrant enzyme activity, GRANS ([2]; P95 Viral Syndrome): .smallcircle.; aberrant enzyme activity, GRANS ([2]; P102 UTI): .smallcircle.; aberrant enzyme activity, MONOS ([3]; P95 Viral Syndrome): .smallcircle.
C[C@H](NC(=O)[C@@H](N)CCCCN)C(=O)Nc1ccc2c(c1)Oc1cc(NC(=O)[C@H](C)NC(=O)[C@@H](N)CCCCN)ccc1C21OC(=O)c2ccccc21 [KA, (Lys-Ala)2 Rho 110]	.smallcircle.	.smallcircle.	.smallcircle.	.smallcircle.	.smallcircle.	.smallcircle.	.smallcircle.	+ (>0.25 Increase over normal range)	.smallcircle.	.smallcircle.	.smallcircle.	.smallcircle.	.smallcircle.	.smallcircle.	.smallcircle.	aberrant enzyme activity, LYMPHS ([1]; P88 Enteritis): .smallcircle.; aberrant enzyme activity, LYMPHS ([1]; P95 Viral Syndrome): .smallcircle.; aberrant enzyme activity, LYMPHS ([1]; P96 Viral Syndrome): .smallcircle.; aberrant enzyme activity, LYMPHS ([1]; P99 Viral Syndrome): .smallcircle.; aberrant enzyme activity, LYMPHS ([1]; P102 UTI): .smallcircle.; aberrant enzyme activity, GRANS ([2]; P88 Enteritis): .smallcircle.; aberrant enzyme activity, GRANS ([2]; P89 Viral Stomatitis): .smallcircle.; aberrant enzyme activity, GRANS ([2]; P95 Viral Syndrome): .smallcircle.; aberrant enzyme activity, GRANS ([2]; P99 Viral Syndrome): .smallcircle.; aberrant enzyme activity, GRANS ([2]; P101 Fever -- Unknown Origin): + (>0.25 Increase over normal range); aberrant enzyme activity, GRANS ([2]; P102 UTI): .smallcircle.; aberrant enzyme activity, MONOS ([3]; P88 Enteritis): .smallcircle.; aberrant enzyme activity, MONOS ([3]; P95 Viral Syndrome): .smallcircle.; aberrant enzyme activity, MONOS ([3]; P101 Fever -- Unknown Origin): + (>0.25 Increase over normal range)
O=C1OC2(c3ccc(OC4O[C@H](CO)[C@@H](O)[C@H](O)[C@H]4O)cc3Oc3cc(OC4O[C@H](CO)[C@@H](O)[C@H](O)[C@H]4O)ccc32)c2ccccc21 (stereo partly drawn) [DGLUC, (D-glucose)2 fluorescein]	.smallcircle.		- (>0.25 Decrease over normal range)	+ (>0.25 Increase over normal range)		+ (>0.25 Increase over normal range)	- (>0.25 Decrease over normal range)		+ (>0.25 Increase over normal range)					.smallcircle.	.smallcircle.	aberrant enzyme activity, LYMPHS ([1]; P88 Enteritis): .smallcircle.; aberrant enzyme activity, GRANS ([2]; P88 Enteritis): .smallcircle.; aberrant enzyme activity, GRANS ([2]; P89 Viral Stomatitis): + (>0.25 Increase over normal range); aberrant enzyme activity, MONOS ([3]; P88 Enteritis): - (>0.25 Decrease over normal range)
N[C@@H](CO)C(=O)Nc1ccc2c(c1)Oc1cc(NC(=O)[C@@H](N)CO)ccc1C21OC(=O)c2ccccc21 [SER, (H-L-Ser)2 Rho 110 .2TFA]	.smallcircle.	.smallcircle.	.smallcircle.		.smallcircle.	.smallcircle.	.smallcircle.	.smallcircle.								
N[C@@H](CC(=O)O)C(=O)Nc1ccc2c(c1)Oc1cc(NC(=O)[C@@H](N)CC(=O)O)ccc1C21OC(=O)c2ccccc21 [ASP, (H-L-Asp)2 --Rho 110 .2TFA]	.smallcircle.	.smallcircle.	.smallcircle.	.smallcircle.	.smallcircle.	.smallcircle.	.smallcircle.	.smallcircle.	.smallcircle.							
CC(C)C[C@H](NC(=O)[C@@H](N)CC(C)C)C(=O)N[C@@H](CCCNC(=N)N)C(=O)Nc1ccc2c(c1)Oc1cc(NC(=O)[C@H](CCCNC(=N)N)NC(=O)[C@H](CC(C)C)NC(=O)[C@@H](N)CC(C)C)ccc1C21OC(=O)c2ccccc21 (stereo partly shown) [LLR, (H-L Leu--Leu--Arg)2 Rho 110 .4TFA]	.smallcircle.	.smallcircle.	.smallcircle.	.smallcircle.	.smallcircle.	.smallcircle.	.smallcircle.	.smallcircle.								
O=C(NCC(=O)N1CCC[C@H]1C(=O)Nc1ccc2c(c1)Oc1cc(NC(=O)[C@@H]3CCCN3C(=O)CNC(=O)OCc3ccccc3)ccc1C21OC(=O)c2ccccc21)OCc1ccccc1 [Z-GP, (carbobenzyloxycarbonyl-Gly-Pro)2 Rho 110]	- (>0.25 Decrease over normal range)		- (>0.25 Decrease over normal range)	- (>0.25 Decrease over normal range)	.smallcircle.	.smallcircle.	- (>0.25 Decrease over normal range)	.smallcircle.	.smallcircle.	.smallcircle.	.smallcircle.	.smallcircle.	.smallcircle.	- (>0.25 Decrease over normal range)	.smallcircle.	aberrant enzyme activity, LYMPHS [1, 4]: .smallcircle.; aberrant enzyme activity, LYMPHS ([1]; P95 Viral Syndrome): - (>0.25 Decrease over normal range); aberrant enzyme activity, LYMPHS ([1]; P96 Viral Syndrome): - (>0.25 Decrease over normal range); aberrant enzyme activity, LYMPHS ([1]; P97 Pyelonephritis, listed as Z-Gly/Pro): .smallcircle.; aberrant enzyme activity, LYMPHS ([1]; P101 Fever -- Unknown Origin): - (>0.25 Decrease over normal range); aberrant enzyme activity, GRANS [2, 4]: .smallcircle.; aberrant enzyme activity, GRANS ([2]; P95 Viral Syndrome): - (>0.25 Decrease over normal range); aberrant enzyme activity, GRANS ([2]; P99 Viral Syndrome): .smallcircle.; aberrant enzyme activity, MONOS [3, 4]: .smallcircle.; aberrant enzyme activity, MONOS ([3]; P95 Viral Syndrome): .smallcircle.; aberrant enzyme activity, MONOS ([3]; P101 Fever -- Unknown Origin): - (>0.25 Decrease over normal range)
C[C@H](N)C(=O)N[C@@H](C)C(=O)Nc1ccc2c(c1)Oc1cc(NC(=O)[C@H](C)NC(=O)[C@H](C)N)ccc1C21OC(=O)c2ccccc21 [AA-TFA, (H-L-Ala--Ala)2 Rho 110 .2TFA]	.smallcircle.	.smallcircle.	.smallcircle.													
C[C@H](NC(=O)OCc1ccccc1)C(=O)N[C@@H](C)C(=O)Nc1ccc2c(c1)Oc1cc(NC(=O)[C@H](C)NC(=O)[C@H](C)NC(=O)OCc3ccccc3)ccc1C21OC(=O)c2ccccc21 [Z-AA, (Z-Ala--Ala)2 Rho 110]					.smallcircle.	.smallcircle.		.smallcircle.	.smallcircle.	.smallcircle.	.smallcircle.	.smallcircle.	.smallcircle.			aberrant enzyme activity, LYMPHS ([1]; P99 Viral Syndrome): .smallcircle.; aberrant enzyme activity, LYMPHS ([1]; P102 UTI): .smallcircle.; aberrant enzyme activity, GRANS ([2]; P99 Viral Syndrome): .smallcircle.; aberrant enzyme activity, GRANS ([2]; P102 UTI): .smallcircle.
C[C@@H](O)[C@H](NC(=O)OCc1ccccc1)C(=O)N1CCC[C@H]1C(=O)Nc1ccc2c(c1)Oc1cc(NC(=O)[C@@H]3CCCN3C(=O)[C@@H](NC(=O)OCc3ccccc3)[C@@H](C)O)ccc1C21OC(=O)c2ccccc21 [Z-TP6.5, (carbobenzyloxycarbonyl-Thr-Pro)2 Rho 110 (pH 6.5)]	- (>0.25 Decrease over normal range)	.smallcircle.	.smallcircle.	- (>0.25 Decrease over normal range)		.smallcircle.	- (>0.25 Decrease over normal range)	.smallcircle.	.smallcircle.					- (>0.25 Decrease over normal range)	- (>0.25 Decrease over normal range)	aberrant enzyme activity, LYMPHS ([1]; P88 Enteritis): - (>0.25 Decrease over normal range); aberrant enzyme activity, GRANS ([2]; P88 Enteritis): - (>0.25 Decrease over normal range); aberrant enzyme activity, GRANS ([2]; P89 Viral Stomatitis): - (>0.25 Decrease over normal range); aberrant enzyme activity, MONOS ([3]; P88 Enteritis): - (>0.25 Decrease over normal range)
